Test results from PubChem BioAssay AID330 (DTP/NCI, 2004).
Values joined by “and” are separate entries in the source; they are usually repeats but may differ in a detail not shown here. Identical values can stand only once. Toxic doses and inconclusive results are not listed. The calls were made as follows: active = survival T/C of 150% or more; inactive = T/C below 125% in these data. Peptide text beside a SMILES is read from it. * marks the point of attachment. Trt = c1ccc(C(c2ccccc2)(c2ccccc2)*)cc1; Benzhydryl = c1ccc(C(c2ccccc2)*)cc1; Cbz = O=C(OCc1ccccc1)*; OtBu = CC(C)(C)O*

System: P388 leukemia ip, CD2F1 mice, survival T/C
Test: NCI In Vivo Anticancer Drug Screen. Data for tumor model P388 Leukemia (intraperitoneal) in CD2F1 (CDF1) mice
Settings: endpoint: median survival time, higher = longer survival
Procedure, shortened: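 Mice carrying the transplanted tumor received test compound or vehicle. Survival was recorded in each group, and the value is the treated-group measurement divided by that of the vehicle-treated control group.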

[1] = dose: 25.0 mg/kg/injection, schedule: Q01DX005 (ip), vehicle: Klucel (hydroxypropylcellulose) (HPC)
[2] = dose: 50.0 mg/kg/injection, schedule: Q01DX005 (ip), vehicle: Klucel (hydroxypropylcellulose) (HPC)
[3] = dose: 60.0 mg/kg/injection, schedule: Q01DX005 (ip), vehicle: Klucel (hydroxypropylcellulose) (HPC)
[4] = dose: 120.0 mg/kg/injection, schedule: Q01DX005 (ip), vehicle: Klucel (hydroxypropylcellulose) (HPC)
[5] = dose: 100.0 mg/kg/injection, schedule: Q04DX003 (ip), vehicle: saline with Tween-80
[6] = dose: 50.0 mg/kg/injection, schedule: Q01DX005 (ip), vehicle: saline with Tween-80
[7] = dose: 100.0 mg/kg/injection, schedule: Q01DX005 (ip), vehicle: saline with Tween-80
[8] = dose: 200.0 mg/kg/injection, schedule: Q01DX005 (ip), vehicle: saline with Tween-80
[9] = dose: 50.0 mg/kg/injection, schedule: Q01DX005 (ip), vehicle: saline
[10] = dose: 100.0 mg/kg/injection, schedule: Q01DX005 (ip), vehicle: saline
[11] = dose: 200.0 mg/kg/injection, schedule: Q01DX005 (ip), vehicle: saline
[12] = dose: 50.0 mg/kg/injection, schedule: Q01DX009 (ip), vehicle: saline
[13] = dose: 100.0 mg/kg/injection, schedule: Q01DX009 (ip), vehicle: saline
[14] = dose: 200.0 mg/kg/injection, schedule: Q01DX009 (ip), vehicle: saline

Measured: T/C

O=S(=O)(F)c1nc(Cl)c2[nH]cnc2n1
inactive: dose: 12.5 mg/kg/injection, schedule: Q01DX005 (ip), vehicle: Klucel (hydroxypropylcellulose) (HPC) 106 % of control | [1] 114 % of control | [2] 110 % of control and 114 % of control

COc1ccc(-n2c(O)c(N=Nc3nc4ccc([N+](=O)[O-])cc4s3)c(=O)n(-c3ccccc3)c2=S)cc1
inactive: [3] 103 % of control | [4] 100 % of control | dose: 240.0 mg/kg/injection, schedule: Q01DX005 (ip), vehicle: Klucel (hydroxypropylcellulose) (HPC) 91 % of control

CN(c1ccccc1)c1c2c(oc(=O)c1Cl)CCSC2
inactive: [5] 94 % of control | dose: 200.0 mg/kg/injection, schedule: Q04DX003 (ip), vehicle: saline with Tween-80 98 % of control | dose: 400.0 mg/kg/injection, schedule: Q04DX003 (ip), vehicle: saline with Tween-80 91 % of control

CC(C)(C)OC(=O)CNC(=O)C(Cc1ccccc1)NC(=O)C(CSC(c1ccccc1)(c1ccccc1)c1ccccc1)NC(=O)CNC(=O)C(Cc1ccccc1)NC(=O)CNC(=O)C(CSC(c1ccccc1)c1ccccc1)NC(=O)C(CSC(c1ccccc1)(c1ccccc1)c1ccccc1)NC(=O)OCc1ccccc1 (stereo not drawn) (Cbz-C(Trt)C(Benzhydryl)GFGC(Trt)FG-OtBu; configuration not given here)
inactive: [3] 100 % of control | [4] 98 % of control

O=C1C=CC(=Nc2cccc3c(N=C4C=CC(=O)O4)cccc23)O1
inactive: [1] 107 % of control | [2] 111 % of control | dose: 100.0 mg/kg/injection, schedule: Q01DX005 (ip), vehicle: Klucel (hydroxypropylcellulose) (HPC) 115 % of control

COc1ccccc1OCC(Cn1c(=O)nc(-c2ccccc2)c2cc(Cl)ccc21)OC(N)=O (stereo not drawn)
inactive: [6] 104 % of control | [7] 100 % of control | [8] 95 % of control

CCCS(=N)(=O)CCC(N)C(=O)O (stereo not drawn)
inactive: dose: 25.0 mg/kg/injection, schedule: Q01DX005 (ip), vehicle: saline 93 % of control | [9] 98 % of control | [10] 107 % of control | [11] 112 % of control

c1ccc2c(c1)CCCN2c1nc(N2CCCC2)nc(N2CCOCC2)n1
inactive: [12] 99 % of control | [13] 89 % of control | [14] 92 % of control

COc1cccc2c1C(=O)c1c(O)c3c(c(O)c1C2=O)C[C@@](O)(C(=O)CO)C[C@@H]3OC1CC(NC(=S)Nc2ccc3ccccc3c2)C(O)C(C)O1 (stereo partly drawn)
inactive: dose: 3.13 mg/kg/injection, schedule: Q01DX009 (ip), vehicle: saline 92 % of control | dose: 6.25 mg/kg/injection, schedule: Q01DX009 (ip), vehicle: saline 99 % of control | dose: 12.5 mg/kg/injection, schedule: Q01DX009 (ip), vehicle: saline 99 % of control | dose: 25.0 mg/kg/injection, schedule: Q01DX009 (ip), vehicle: saline 101 % of control | [12] 108 % of control

COc1nc(NCC(C)O)nc(NCC(C)O)n1 (stereo not drawn)
inactive: [12] 100 % of control | [13] 89 % of control | [14] 99 % of control

CCC(C)C(NC(=O)C(Cc1ccc(O)cc1)NC(=O)OCc1ccccc1)C(=O)OC (stereo not drawn) (Cbz-Tyr-Ile-OMe; configuration not given here)
inactive: [6] 106 % of control | [7] 92 % of control | [8] 97 % of control

CCOC(=O)/C(C#N)=C/P(=O)(OCC)OCC
inactive: dose: 3.12 mg/kg/injection, schedule: Q04DX003 (ip), vehicle: Klucel (hydroxypropylcellulose) (HPC) 101 % of control | dose: 6.25 mg/kg/injection, schedule: Q04DX003 (ip), vehicle: Klucel (hydroxypropylcellulose) (HPC) 100 % of control | dose: 12.5 mg/kg/injection, schedule: Q04DX003 (ip), vehicle: Klucel (hydroxypropylcellulose) (HPC) 99 % of control

CC(C)C(N)C(=O)NC(C(=O)NS(=O)(=O)c1ccc(N)cc1)C(C)C (stereo not drawn)
inactive: [9] 99 % of control | [10] 93 % of control | [11] 98 % of control

CCOC(=O)Nc1c(C)cc(C)cc1C
inactive: dose: 25.0 mg/kg/injection, schedule: Q01DX009 (ip), vehicle: Klucel (hydroxypropylcellulose) (HPC) 99 % of control | dose: 50.0 mg/kg/injection, schedule: Q01DX009 (ip), vehicle: Klucel (hydroxypropylcellulose) (HPC) 100 % of control | dose: 100.0 mg/kg/injection, schedule: Q01DX009 (ip), vehicle: Klucel (hydroxypropylcellulose) (HPC) 94 % of control | dose: 200.0 mg/kg/injection, schedule: Q01DX009 (ip), vehicle: Klucel (hydroxypropylcellulose) (HPC) 100 % of control

O=C1NC(=O)C2C1C(C(=O)O)C1C3C(=O)NC(=O)C3C1C2C(=O)O (stereo not drawn)
inactive: dose: 25.0 mg/kg/injection, schedule: Q01DX009 (ip), vehicle: saline with Tween-80 91 % of control | dose: 50.0 mg/kg/injection, schedule: Q01DX009 (ip), vehicle: saline with Tween-80 94 % of control | dose: 100.0 mg/kg/injection, schedule: Q01DX009 (ip), vehicle: saline with Tween-80 97 % of control | dose: 200.0 mg/kg/injection, schedule: Q01DX009 (ip), vehicle: saline with Tween-80 91 % of control and 92 % of control | dose: 400.0 mg/kg/injection, schedule: Q01DX009 (ip), vehicle: saline with Tween-80 96 % of control

O=C1C2CCC(N1c1ccc(F)cc1)n1c(=O)n(-c3ccccc3)c(=O)n12 (stereo not drawn)
inactive: dose: 100.0 mg/kg/injection, schedule: Q01DX001 (ip), vehicle: Klucel (hydroxypropylcellulose) (HPC) 104 % of control | dose: 200.0 mg/kg/injection, schedule: Q01DX001 (ip), vehicle: Klucel (hydroxypropylcellulose) (HPC) 94 % of control | dose: 400.0 mg/kg/injection, schedule: Q01DX001 (ip), vehicle: Klucel (hydroxypropylcellulose) (HPC) 100 % of control

c1cc2c3c(c1)nc(CCCc1nc4cccc5c4n1CCC5)n3CCC2
inactive: dose: 25.0 mg/kg/injection, schedule: Q04DX003 (ip), vehicle: saline with Tween-80 95 % of control | dose: 50.0 mg/kg/injection, schedule: Q04DX003 (ip), vehicle: saline with Tween-80 86 % of control | [5] 90 % of control

C=CS(=O)(=O)c1ccc(C)cc1
inactive: dose: 1.56 mg/kg/injection, schedule: Q01DX009 (ip), vehicle: Klucel (hydroxypropylcellulose) (HPC) 104 % of control | dose: 3.13 mg/kg/injection, schedule: Q01DX009 (ip), vehicle: Klucel (hydroxypropylcellulose) (HPC) 99 % of control and 105 % of control | dose: 6.25 mg/kg/injection, schedule: Q01DX009 (ip), vehicle: Klucel (hydroxypropylcellulose) (HPC) 121 % of control and 95 % of control | dose: 12.5 mg/kg/injection, schedule: Q01DX009 (ip), vehicle: Klucel (hydroxypropylcellulose) (HPC) 99 % of control and 111 % of control

C=CC1CN2CCC1CC2C(=O)c1ccnc2ccc(OC)cc12 (stereo not drawn)
inactive: [6] 100 % of control | [7] 100 % of control | [8] 100 % of control
